From ChEMBL document CHEMBL1201862, “PubChem BioAssay data set” (2004)
Several values for one entry are separate records, joined by “and”; a condition that tells them apart may be missing. Equal values may be shown once. Activity calls are given as the source filed them.

Legend:
H9c2 = experiment: cells; type: functional, cell-based; details: Rattus norvegicus, H9c2, Myocardium;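 further: confirmatory concentration-response retest of ultra-high-throughput screening hits for modulation of myocardial damage; cell death induced by hydrogen peroxide oxidative stress; compound pretreatment for 60 min then peroxide exposure for 2 h; potency is for protecting the cells against peroxide damage rather than for killing them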
[1] = biological target: T1, Polyadenylate-binding protein 1 (Homo sapiens, UniProt P11940); experiment: MLLE domain peptide-binding blockers, IC50 – biochemical, fluorescence polarization, FITC-PAM2 peptide, dose response (AID 602259); type: functional; details: read-out: IC50_Mean
[2] = biological target: T1, Polyadenylate-binding protein 1; experiment: MLLE binding blockers, Cy5 peptide tracer – biochemical, fluorescence polarization, Cy5-PAM2 peptide, secondary, miRNA deadenylation inhibitor project, dose response (AID 602260); type: functional; details: read-out: IC50_Mean
INS1 = experiment: INS-1E survival protection against cytokine death – cell-based, luminescence, retest, dose response (AID 449756); type: functional; details: Rattus norvegicus;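 further: cell death triggered by IL-1 beta plus TNF-alpha plus IFN-gamma mixture; protective hits raise ATP signal compared with cytokine alone wells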
Cytochrome P450 3A4 = Cytochrome P450 3A4 (Homo sapiens, UniProt P08684);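 further: CYP3A4 tested as one member of a cytochrome P450 panel screen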
Cytochrome P450 2D6 = Cytochrome P450 2D6 (Homo sapiens, UniProt P10635);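 further: CYP2D6 member of a cytochrome P450 panel assay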
Cytochrome P450 2C9 = Cytochrome P450 2C9 (Homo sapiens, UniProt P11712)
[3] = Luminescence Cell-Based Dose Response HTS to Identify Activators of Luciferase Translation or Activity in H4 […] Cells. [Related pubchem assays: 1829 (Project Summary), 1814 (Primary HTS)]; type: functional
H4 = experiment: Luminescence Cell-Based Dose Response HTS to Identify Activators of 5'UTR Stem-Loop Driven Prion Protein mRNA Translation in H4 Neuroglioblastoma Cells. [Related pubchem assays: 1829 (Project Summary), 1814 (Primary HTS)]; type: functional; details: Homo sapiens
[4] = Luminescence Cell-Based Dose Confirmation HTS to Identify Activators of 5'UTR Stem-Loop Driven Alpha-Synuclein mRNA Translation in H4 Neuroglioblastoma Cells. [Related pubchem assays: 1829 (Project Summary), 1814 (Primary HTS)]; type: functional
[5] = alpha-synuclein stem-loop luciferase translation blockers – H4 neuroglioma cells, luminescence, confirmation (AID 1988); type: functional, cell-based
Streptococcus = experiment: GAS UMAA2166 growth inhibition – luminescence, BacTiterGlo, counter-screen for streptokinase expression inhibitor project, dose response (AID 1915); type: functional, organism-based;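 further: potency for reduction of bacterial viability or growth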
[6] = test system: Streptococcus sp. 'group A'; experiment: Streptococcus pyogenes SK(-)GAS viability under kanamycin – luminescence, BacTiterGlo, confirmation, counter-screen for streptokinase expression inhibitor project, dose response (AID 1900); type: functional, organism-based
Streptokinase A = biological target: T2, Streptokinase A (Streptococcus pyogenes serotype M1, UniProt P10520); experiment: viability-normalized secreted streptokinase activity reduction – plasminogen activation absorbance, OD405, dose response (AID 1914); type: functional, Streptococcus pyogenes M1 GAS;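 further: secreted streptokinase activity via plasminogen activation per viability signal from cell pellet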
T2 sequence (P10520 whole entry): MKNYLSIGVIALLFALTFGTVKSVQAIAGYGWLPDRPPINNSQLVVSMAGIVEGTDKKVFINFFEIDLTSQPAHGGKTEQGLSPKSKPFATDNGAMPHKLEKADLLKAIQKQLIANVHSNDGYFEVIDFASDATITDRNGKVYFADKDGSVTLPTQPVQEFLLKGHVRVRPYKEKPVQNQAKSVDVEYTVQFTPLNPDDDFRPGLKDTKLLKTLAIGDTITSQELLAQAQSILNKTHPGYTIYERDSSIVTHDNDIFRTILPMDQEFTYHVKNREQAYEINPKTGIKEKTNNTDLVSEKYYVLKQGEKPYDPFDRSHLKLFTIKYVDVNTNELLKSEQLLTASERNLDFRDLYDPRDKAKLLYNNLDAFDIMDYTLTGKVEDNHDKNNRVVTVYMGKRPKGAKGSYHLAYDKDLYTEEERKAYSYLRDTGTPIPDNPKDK

[7] = luciferase reporter signal suppression in cells – H4 neuroglioma cells, luminescence, dose response (AID 1990); type: functional, cell-based
[8] = Luminescence Cell-Based Dose Response HTS to Identify Inhibitors of 5'UTR Stem-Loop Driven Prion Protein mRNA Translation in H4 Neuroglioblastoma Cells. [Related pubchem assays: 1827 (Project Summary), 1813 (Primary HTS)]; type: functional
Cytochrome P450 2C19 = Cytochrome P450 2C19 (Homo sapiens, UniProt P33261); experiment: Cytochrome panel assay with activity outcomes. Panel member name: p450-cyp2c19 Compounds with AC50 equal or less than 10 uM are considered active; type: functional; details: read-out: AC50
[9] = biological target: T3, Heat shock factor protein 1 (Mus musculus, UniProt P38532); experiment: enhancement of HSF1-driven luciferase signal – cell-based, NIH3T3, luminescence, dose retest, confirmation (AID 435004); type: functional;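 further: stress induced by proteasome inhibitor MG132 added 30 min after compound; luciferase reporter driven by HSF1 response element in NIH3T3 cells; actives raise luminescence as potentiators of the MG132 stress response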
T3 sequence (P38532 whole entry): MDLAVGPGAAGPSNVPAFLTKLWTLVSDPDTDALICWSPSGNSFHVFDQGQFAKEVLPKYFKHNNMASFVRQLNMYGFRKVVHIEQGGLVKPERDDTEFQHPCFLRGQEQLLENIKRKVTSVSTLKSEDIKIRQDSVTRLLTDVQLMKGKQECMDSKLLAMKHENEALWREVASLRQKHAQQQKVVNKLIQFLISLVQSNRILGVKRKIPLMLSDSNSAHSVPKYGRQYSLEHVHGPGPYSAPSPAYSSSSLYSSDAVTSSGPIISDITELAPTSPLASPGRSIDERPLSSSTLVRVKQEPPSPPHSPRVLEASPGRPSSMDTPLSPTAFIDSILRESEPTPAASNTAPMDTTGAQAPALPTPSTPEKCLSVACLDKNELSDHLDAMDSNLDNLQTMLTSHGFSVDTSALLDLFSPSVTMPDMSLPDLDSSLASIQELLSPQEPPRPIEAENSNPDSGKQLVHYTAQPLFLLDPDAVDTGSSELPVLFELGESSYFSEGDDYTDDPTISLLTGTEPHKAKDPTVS

Sequence of Cytochrome P450 2C19 (P33261 whole entry): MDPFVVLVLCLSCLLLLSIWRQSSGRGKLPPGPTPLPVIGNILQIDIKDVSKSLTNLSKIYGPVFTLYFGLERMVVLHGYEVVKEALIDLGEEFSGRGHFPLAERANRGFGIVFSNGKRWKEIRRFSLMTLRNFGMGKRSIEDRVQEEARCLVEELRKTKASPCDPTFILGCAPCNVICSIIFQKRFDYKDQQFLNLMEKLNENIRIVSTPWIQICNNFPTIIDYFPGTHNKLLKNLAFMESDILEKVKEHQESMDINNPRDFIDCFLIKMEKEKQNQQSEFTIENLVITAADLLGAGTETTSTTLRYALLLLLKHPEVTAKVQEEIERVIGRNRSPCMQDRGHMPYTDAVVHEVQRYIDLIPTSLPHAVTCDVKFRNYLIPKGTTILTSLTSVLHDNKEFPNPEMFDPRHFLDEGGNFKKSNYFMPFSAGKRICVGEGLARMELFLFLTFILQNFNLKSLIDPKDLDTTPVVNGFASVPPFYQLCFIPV
T1 sequence (P11940 whole entry, the tested form may be a part): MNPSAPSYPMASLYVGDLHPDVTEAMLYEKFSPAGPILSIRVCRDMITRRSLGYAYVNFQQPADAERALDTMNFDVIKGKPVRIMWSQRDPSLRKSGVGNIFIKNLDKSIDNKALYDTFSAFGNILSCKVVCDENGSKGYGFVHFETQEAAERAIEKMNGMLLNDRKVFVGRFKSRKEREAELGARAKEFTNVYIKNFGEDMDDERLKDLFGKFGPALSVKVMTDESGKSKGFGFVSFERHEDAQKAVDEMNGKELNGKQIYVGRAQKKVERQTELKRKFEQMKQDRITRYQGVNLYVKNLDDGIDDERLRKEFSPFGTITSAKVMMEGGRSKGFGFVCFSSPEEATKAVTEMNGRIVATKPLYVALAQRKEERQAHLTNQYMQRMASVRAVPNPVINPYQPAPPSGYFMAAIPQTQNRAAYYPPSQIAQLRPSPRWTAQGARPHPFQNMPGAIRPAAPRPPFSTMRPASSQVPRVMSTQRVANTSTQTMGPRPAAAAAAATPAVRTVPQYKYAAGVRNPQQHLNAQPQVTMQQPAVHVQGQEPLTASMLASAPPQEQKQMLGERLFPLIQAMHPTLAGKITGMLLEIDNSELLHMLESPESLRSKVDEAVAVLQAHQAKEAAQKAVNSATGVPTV
Sequence of Cytochrome P450 3A4 (P08684 whole entry): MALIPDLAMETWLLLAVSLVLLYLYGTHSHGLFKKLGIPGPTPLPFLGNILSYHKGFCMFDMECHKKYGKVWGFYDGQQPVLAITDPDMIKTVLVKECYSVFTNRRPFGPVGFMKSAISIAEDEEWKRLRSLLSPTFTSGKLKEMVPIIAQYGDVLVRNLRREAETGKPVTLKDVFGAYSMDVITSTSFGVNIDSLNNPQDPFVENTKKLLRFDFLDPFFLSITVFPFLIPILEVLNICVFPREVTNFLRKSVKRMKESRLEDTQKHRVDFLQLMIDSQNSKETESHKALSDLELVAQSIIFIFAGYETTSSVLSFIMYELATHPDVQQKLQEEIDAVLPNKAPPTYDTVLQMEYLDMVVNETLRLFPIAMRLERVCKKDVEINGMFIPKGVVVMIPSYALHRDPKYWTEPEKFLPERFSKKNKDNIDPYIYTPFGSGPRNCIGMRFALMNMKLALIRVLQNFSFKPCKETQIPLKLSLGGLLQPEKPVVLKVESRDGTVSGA
Sequence of Cytochrome P450 2D6 (P10635 whole entry): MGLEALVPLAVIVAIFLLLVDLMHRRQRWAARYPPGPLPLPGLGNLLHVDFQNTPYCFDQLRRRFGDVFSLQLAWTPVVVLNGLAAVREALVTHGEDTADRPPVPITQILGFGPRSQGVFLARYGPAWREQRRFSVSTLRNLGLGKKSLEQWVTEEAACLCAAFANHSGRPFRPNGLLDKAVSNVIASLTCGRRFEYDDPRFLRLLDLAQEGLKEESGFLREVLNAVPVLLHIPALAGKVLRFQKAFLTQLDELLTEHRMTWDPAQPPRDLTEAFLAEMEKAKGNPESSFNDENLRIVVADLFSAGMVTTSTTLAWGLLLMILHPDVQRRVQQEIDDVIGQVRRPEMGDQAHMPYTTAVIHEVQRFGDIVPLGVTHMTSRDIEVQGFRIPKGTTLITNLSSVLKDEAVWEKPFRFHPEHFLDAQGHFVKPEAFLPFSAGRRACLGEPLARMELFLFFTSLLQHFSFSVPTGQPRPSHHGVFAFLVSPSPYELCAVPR
Sequence of Cytochrome P450 2C9 (P11712 whole entry): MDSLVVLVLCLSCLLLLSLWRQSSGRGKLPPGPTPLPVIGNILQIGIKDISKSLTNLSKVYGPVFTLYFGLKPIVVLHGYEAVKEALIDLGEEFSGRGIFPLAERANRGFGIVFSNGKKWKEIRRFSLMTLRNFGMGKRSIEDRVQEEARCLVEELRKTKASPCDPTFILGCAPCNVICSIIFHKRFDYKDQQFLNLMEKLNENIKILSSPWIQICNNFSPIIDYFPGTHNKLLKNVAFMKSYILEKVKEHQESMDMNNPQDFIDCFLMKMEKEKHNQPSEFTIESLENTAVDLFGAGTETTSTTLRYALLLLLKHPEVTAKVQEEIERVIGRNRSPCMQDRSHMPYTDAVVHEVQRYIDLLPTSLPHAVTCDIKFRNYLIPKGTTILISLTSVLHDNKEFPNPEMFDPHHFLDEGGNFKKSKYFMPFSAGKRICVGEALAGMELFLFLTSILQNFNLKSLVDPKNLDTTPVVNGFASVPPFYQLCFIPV

In the case of `C1=C(c2ccccc2)CCN(c2nc3ccccc3n3cnnc23)C1`, the IC50 (H9c2) is reported as > 79 µM (inactive).

In the case of `CCOC(=O)c1sc(=S)n(C)c1NC(=O)c1ccccc1Cl`, the IC50 [1] is reported as > 66 µM (inactive) and the IC50 [2] is reported as > 66 µM (inactive).

For `O=C(CN(Cc1ccco1)Cc1ccco1)Nc1cc(S(=O)(=O)N2CCCCC2)ccc1Cl`, the AC50 (INS1) was 7.48 µM (active).

In the case of `CN(C)c1ccc(/N=N\c2cccc3ccoc23)cc1`, the AC50 (Cytochrome P450 3A4) is reported as 3.98 µM (inconclusive) and the AC50 (Cytochrome P450 2D6) is reported as 3.16 µM (inconclusive).

With `O=C(/C=C/c1ccco1)N1CCN(c2ncccn2)CC1` the IC50 [1] was > 66 µM (inactive) and the IC50 [2] was > 66 µM (inactive).

For `O=C(NNC(=S)Nc1ccc(Br)cc1Cl)c1ccncc1`, the IC50 [1] was > 66 µM (inactive) and the IC50 [2] was > 66 µM (inactive).

With `Cc1cccc(N(NC(=O)C(C)(C)O)C(=O)c2ccccc2)c1` the AC50 (Cytochrome P450 3A4) was 17.8 µM (inconclusive) and the AC50 (Cytochrome P450 2C9) was 39.8 µM (inconclusive).

In the case of `COc1ccc(OC)c(NC(=O)CSC2=NCCS2)c1`, the IC50 [1] is reported as > 66 µM (inactive) and the IC50 [2] is reported as > 66 µM (inactive).

For `c1coc(CSc2ncnc3c2oc2ccccc23)c1`, the EC50 [3] was 4.94 µM (active), the EC50 (H4) was 6.38 µM (active) and the EC50 [4] was 3.52 µM (active).

For `Cc1ccc(C(=O)CSc2nc(O)c3ccccc3n2)cc1`, the IC50 (H9c2) was > 79 µM (inactive).

With `O=C(CSc1nc(O)c2ccccc2n1)N1CCCCC1` the IC50 (H9c2) was 10.5 µM (active).

With `CC(C)(C)C(=O)NC(Nc1cccc2cccnc12)C(Cl)(Cl)Cl` (configuration not stated) the AC50 (Cytochrome P450 3A4) was 7.08 µM (inconclusive), the AC50 (INS1) was 23.6 µM (active) and the AC50 (Cytochrome P450 2D6) was 15.8 µM (inconclusive).

In the case of `COc1ccc(-c2nc3cnc(N(C)C)nc3n(Cc3cccs3)c2=O)cc1`, the AC50 (Cytochrome P450 3A4) is reported as 12.6 µM (inconclusive).

With `COc1cc(/C=N/NC(=O)c2ccncc2)ccc1OC(=O)c1ccccc1Cl` the IC50 (H9c2) was > 79 µM (inactive).

For `NN=C(S)Nc1ccc(OC(F)(F)F)cc1`, the AC50 (INS1) was > 260 µM (inactive).

With `NC[C@@H]1O[C@H](C23CC4CC(CC(C4)C2)C3)Cc2c1ccc(O)c2O` the AC50 (Cytochrome P450 3A4) was 20 µM (inconclusive) and 31.6 µM (inconclusive).

For `Cc1ccc(C)c(C(=O)COC(=O)Cn2[nH]c(=O)c3ccccc3c2=O)c1`, the IC50 (H9c2) was 63.5 µM (inactive).

In the case of `COc1ccc(CCNc2nc(-c3cccnc3)nc3ccccc23)cc1OC`, the IC50 (H9c2) is reported as > 79 µM (inactive).

In the case of `CCOC(=O)c1ccc(-c2ccc3ncnc(NCc4csc(C)n4)c3c2)o1`, the IC50 (H9c2) is reported as > 79 µM (inactive).

For `CC(=O)Nc1nc(NC(=O)/C=C/c2ccccc2)n(-c2ccccc2)n1`, the EC50 [5] was 15.7 µM (active), the EC50 (Streptococcus) was 33.9 µM (active) and the EC50 [6] was 2.47 µM (active). For the same compound, the EC50 (Streptokinase A) was > 150 µM (not active), the EC50 [7] was 14.2 µM (active) and the EC50 [8] was 13.7 µM (active).

In the case of `Cc1cccc(C)c1N=C(S)Nc1ccc(Cl)c(Cl)c1`, the IC50 [1] is reported as > 66 µM (inactive) and the IC50 [2] is reported as > 66 µM (inactive).

In the case of `c1ccc(-c2noc(C34CC5CC(CC(C5)C3)C4)n2)nc1`, the EC50 [3] is reported as 30.3 µM (active), the EC50 (H4) is reported as 48 µM (active) and the EC50 [4] is reported as 0.122 µM (active).

In the case of `CC1(C)CC2=NC(SCC(N)=O)=C(C#N)C3(CCCCC3)C2=C(O)C1`, the IC50 [1] is reported as > 66 µM (inactive) and the IC50 [2] is reported as > 66 µM (inactive).

In the case of `Cc1cc(NC(=O)COC(=O)Cn2[nH]c(=O)c3ccccc3c2=O)c([N+](=O)[O-])cc1C`, the IC50 (H9c2) is reported as 31.7 µM (inactive).

In the case of `Cc1cnc(CNc2ccnc(-c3ccccc3Cl)n2)cn1`, the AC50 (Cytochrome P450 3A4) is reported as 10 µM (inconclusive) and the AC50 (Cytochrome P450 2C19) is reported as 39.8 µM (inconclusive).

For `O=c1c(-c2ccc3c(c2)OCCO3)coc2c(CN3CCOCC3)c(O)ccc12`, the EC50 [3] was 17.7 µM (active), the EC50 (H4) was > 120 µM (not active) and the EC50 [4] was 42.3 µM (active).

For `C=C(C)CN1CC[C@@]23c4c5ccc(O)c4O[C@H]2c2[nH]c4ccccc4c2C[C@]3(O)[C@@H]1C5`, the AC50 (Cytochrome P450 3A4) was 31.6 µM (inconclusive) and the AC50 (Cytochrome P450 2C19) was 3.16 µM (inconclusive).

In the case of `CCCC1c2ccc(C)n2CCN1C(=O)Nc1ccccc1Cl` (configuration not stated), the EC50 [3] is reported as 14.2 µM (active), the EC50 (H4) is reported as > 120 µM (not active) and the EC50 [4] is reported as 23 µM (active).

In the case of `O=C(C[C@H]1C/C=C\CC[C@H](Cc2ccc(F)cc2)C(=O)O[C@H](c2ccccc2)CNC1=O)N[C@H](CO)Cc1ccccc1`, the IC50 (H9c2) is reported as 25.3 µM (active).

In the case of `O=C(Nc1ccc(C(=O)N2CCOCC2)cc1)c1cnn2c(C(F)F)cc(-c3ccccc3)nc12`, the IC50 (H9c2) is reported as > 79 µM (inactive) and the EC50 [9] is reported as > 260 µM (inactive).

With `COc1cc(/C=N/NC(=O)c2cccnc2)ccc1OC(=O)c1cc(OC)c(OC)c(OC)c1` the AC50 (INS1) was 1.1 µM (active).

In the case of `Cc1cccc(OCCCC(=O)Nc2ccc(N3CCCCC3)cc2)c1`, the AC50 (Cytochrome P450 3A4) is reported as 7.08 µM (inconclusive) and the AC50 (Cytochrome P450 2C19) is reported as 0.355 µM (inconclusive).

For `CO[C@H]1COC(=O)[C@H](C)COC(=O)[C@@H](Cc2ccccc2)NC(=O)C/C=C\[C@H]1C`, the AC50 (Cytochrome P450 3A4) was 6.31 µM (inconclusive).

For `Oc1cc(O)cc(/C=C\c2ccc(O)c(O)c2)c1`, the AC50 (Cytochrome P450 3A4) was 20 µM (inconclusive) and the AC50 (Cytochrome P450 2C9) was 31.6 µM (inconclusive).

For `Fc1ccc(N2Cc3ccsc3C=N2)cc1`, the EC50 [3] was 23.9 µM (active), the EC50 (H4) was > 120 µM (not active) and the EC50 [4] was 37.1 µM (active).

For `O=C(COC(=O)Cn1[nH]c(=O)c2ccccc2c1=O)NNC(=O)c1ccccc1`, the IC50 (H9c2) was > 79 µM (inactive).

With `O=C1NC2=C(C(=O)CCC2)C(c2ccccc2[N+](=O)[O-])N1` (configuration not stated) the IC50 [1] was > 66 µM (inactive) and the IC50 [2] was > 66 µM (inactive).

For `Cc1noc(C)c1C(=O)N1CCC2(CCCN(c3ccncc3)C2)CC1`, the AC50 (Cytochrome P450 3A4) was 31.6 µM (inconclusive).

With `COc1ccc(C(C)(C)C)cc1NC(=O)c1cncc(Br)c1` the AC50 (Cytochrome P450 3A4) was 11.2 µM (inconclusive) and the AC50 (Cytochrome P450 2C19) was 10 µM (inconclusive).

With `NCCNS(=O)(=O)c1ccc(N)cc1` the AC50 (Cytochrome P450 3A4) was 5.01 µM (inconclusive).

In the case of `CCC(=O)Nc1ccc(-c2ccc(N3CCN(C)CC3)nn2)cc1`, the EC50 [3] is reported as 15.5 µM (active), the EC50 (H4) is reported as 19.2 µM (active) and the EC50 [4] is reported as > 120 µM (not active).

For `Cc1cc2cc(CNC(=O)c3ccc(Br)o3)ccc2n1C`, the IC50 [1] was > 66 µM (inactive) and the IC50 [2] was > 66 µM (inactive).
